Legend:
Assay in all cases: relative viability (nuclei count vs DMSO), 5 days (fraction); higher = more cells survive
HCC-78 = tested on: HCC-78
Procedure, shortened: (§1)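 Lung cancer cell lines in 1536-well plates got either a single drug or a fixed anchor-drug dose together with five library-drug doses (not always all listed) in √10 steps, by pin tool, on the day after seeding. Nuclei were counted after 5 days, and relative viability is the treated-to-vehicle ratio of nuclei counts. Values are medians of duplicate plates.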

LCLC-97TM1 = tested on: LCLC-97TM1
Procedure, shortened: as §1

H3255 = tested on: H3255
Procedure, shortened: as §1

NCI-H1666 = tested on: NCI-H1666
Procedure, shortened: as §1

NCI-H647 = tested on: NCI-H647
Procedure, shortened: as §1

RERF-LC-KJ = tested on: RERF-LC-KJ
Procedure, shortened: as §1

NCI-H2126 = tested on: NCI-H2126
Procedure, shortened: as §1

NCI-H1915 = tested on: NCI-H1915
Procedure, shortened: as §1

NCI-H23 = tested on: NCI-H23
Procedure, shortened: as §1

EPLC-272H = tested on: EPLC-272H
Procedure, shortened: as §1

NCI-H650 = tested on: NCI-H650
Procedure, shortened: as §1

NCI-H2347 = tested on: NCI-H2347
Procedure, shortened: as §1

LC-2-ad = tested on: LC-2-ad
Procedure, shortened: as §1

NCI-H2087 = tested on: NCI-H2087
Procedure, shortened: as §1

NCI-H2405 = tested on: NCI-H2405
Procedure, shortened: as §1

HCC-827 = tested on: HCC-827
Procedure, shortened: as §1

ChaGo-K-1 = tested on: ChaGo-K-1
Procedure, shortened: as §1

201T = tested on: 201T
Procedure, shortened: as §1

PC-14 = tested on: PC-14
Procedure, shortened: as §1

## O=c1cc(-c2cccc3c2Sc2ccccc2S3)oc(N2CCOCC2)c1 + NC(=O)Nc1cc(-c2cccc(F)c2)sc1C(=O)N[C@H]1CCCNC1 [AZD7762] (partner 0.2 µM)
HCC-78; first compound 0.08 µM
  relative viability: 0.624
HCC-78; first compound 0.253 µM
  relative viability: 0.643
HCC-78; first compound 0.8 µM
  relative viability: 0.472
HCC-78; first compound 2.53 µM
  relative viability: 0.614
HCC-78; first compound 8 µM
  relative viability: 0.655
LCLC-97TM1; first compound 0.08 µM
  relative viability: 0.303
LCLC-97TM1; first compound 0.253 µM
  relative viability: 0.191
LCLC-97TM1; first compound 0.8 µM
  relative viability: 0.265
LCLC-97TM1; first compound 2.53 µM
  relative viability: 0.114
LCLC-97TM1; first compound 8 µM
  relative viability: 0.345
H3255; first compound 0.08 µM
  relative viability: 0.878
H3255; first compound 0.253 µM
  relative viability: 0.996
H3255; first compound 0.8 µM
  relative viability: 0.758
H3255; first compound 2.53 µM
  relative viability: 0.882
H3255; first compound 8 µM
  relative viability: 0.901
NCI-H1666; first compound 0.08 µM
  relative viability: 0.76
NCI-H1666; first compound 0.253 µM
  relative viability: 0.928
NCI-H1666; first compound 0.8 µM
  relative viability: 0.781
NCI-H1666; first compound 2.53 µM
  relative viability: 0.773
NCI-H1666; first compound 8 µM
  relative viability: 0.85
NCI-H647; first compound 0.08 µM
  relative viability: 0.545
NCI-H647; first compound 0.253 µM
  relative viability: 0.422
NCI-H647; first compound 0.8 µM
  relative viability: 0.456
NCI-H647; first compound 2.53 µM
  relative viability: 0.197
NCI-H647; first compound 8 µM
  relative viability: 0.49
RERF-LC-KJ; first compound 0.08 µM
  relative viability: 0.913
RERF-LC-KJ; first compound 0.253 µM
  relative viability: 1.05
RERF-LC-KJ; first compound 0.8 µM
  relative viability: 0.846
RERF-LC-KJ; first compound 2.53 µM
  relative viability: 0.977
RERF-LC-KJ; first compound 8 µM
  relative viability: 1.02
NCI-H2126; first compound 0.08 µM
  relative viability: 1.02
NCI-H2126; first compound 0.253 µM
  relative viability: 1.16
NCI-H2126; first compound 0.8 µM
  relative viability: 1.04
NCI-H2126; first compound 2.53 µM
  relative viability: 1.03
NCI-H2126; first compound 8 µM
  relative viability: 1.04
NCI-H1915; first compound 0.08 µM
  relative viability: 0.716
NCI-H1915; first compound 0.253 µM
  relative viability: 0.761
NCI-H1915; first compound 0.8 µM
  relative viability: 0.795
NCI-H1915; first compound 2.53 µM
  relative viability: 0.681
NCI-H1915; first compound 8 µM
  relative viability: 0.716
NCI-H23; first compound 0.08 µM
  relative viability: 0.205
NCI-H23; first compound 0.253 µM
  relative viability: 0.251
NCI-H23; first compound 0.8 µM
  relative viability: 0.349
NCI-H23; first compound 2.53 µM
  relative viability: 0.203
NCI-H23; first compound 8 µM
  relative viability: 0.229
EPLC-272H; first compound 0.08 µM
  relative viability: 0.19
EPLC-272H; first compound 0.253 µM
  relative viability: 0.242
EPLC-272H; first compound 0.8 µM
  relative viability: 0.22
EPLC-272H; first compound 2.53 µM
  relative viability: 0.24
EPLC-272H; first compound 8 µM
  relative viability: 0.248
NCI-H650; first compound 0.08 µM
  relative viability: 0.886
NCI-H650; first compound 0.253 µM
  relative viability: 1.09
NCI-H650; first compound 0.8 µM
  relative viability: 1.03
NCI-H650; first compound 2.53 µM
  relative viability: 0.668
NCI-H650; first compound 8 µM
  relative viability: 1.01
NCI-H2347; first compound 0.08 µM
  relative viability: 0.738
NCI-H2347; first compound 0.253 µM
  relative viability: 0.798
NCI-H2347; first compound 0.8 µM
  relative viability: 0.799
NCI-H2347; first compound 2.53 µM
  relative viability: 0.749
NCI-H2347; first compound 8 µM
  relative viability: 0.701
LC-2-ad; first compound 0.08 µM
  relative viability: 0.805
LC-2-ad; first compound 0.253 µM
  relative viability: 0.944
LC-2-ad; first compound 0.8 µM
  relative viability: 0.853
LC-2-ad; first compound 2.53 µM
  relative viability: 0.741
LC-2-ad; first compound 8 µM
  relative viability: 0.797
NCI-H2087; first compound 0.08 µM
  relative viability: 1.25
NCI-H2087; first compound 0.253 µM
  relative viability: 1.46
NCI-H2087; first compound 0.8 µM
  relative viability: 1.07
NCI-H2087; first compound 2.53 µM
  relative viability: 1.31
NCI-H2087; first compound 8 µM
  relative viability: 1.25
NCI-H2405; first compound 0.08 µM
  relative viability: 0.691
NCI-H2405; first compound 0.253 µM
  relative viability: 0.808
NCI-H2405; first compound 0.8 µM
  relative viability: 0.731
NCI-H2405; first compound 2.53 µM
  relative viability: 0.64
NCI-H2405; first compound 8 µM
  relative viability: 0.661
HCC-827; first compound 0.08 µM
  relative viability: 0.199
HCC-827; first compound 0.253 µM
  relative viability: 0.196
HCC-827; first compound 0.8 µM
  relative viability: 0.165
HCC-827; first compound 2.53 µM
  relative viability: 0.122
HCC-827; first compound 8 µM
  relative viability: 0.188
ChaGo-K-1; first compound 0.08 µM
  relative viability: 0.827
ChaGo-K-1; first compound 0.253 µM
  relative viability: 0.942
ChaGo-K-1; first compound 0.8 µM
  relative viability: 0.779
ChaGo-K-1; first compound 2.53 µM
  relative viability: 0.889
ChaGo-K-1; first compound 8 µM
  relative viability: 0.975
201T; first compound 0.08 µM
  relative viability: 0.598
201T; first compound 0.253 µM
  relative viability: 0.686
201T; first compound 0.8 µM
  relative viability: 0.741
201T; first compound 2.53 µM
  relative viability: 0.655
201T; first compound 8 µM
  relative viability: 0.546
PC-14; first compound 0.08 µM
  relative viability: 0.338
PC-14; first compound 0.253 µM
  relative viability: 0.45
PC-14; first compound 0.8 µM
  relative viability: 0.264
PC-14; first compound 2.53 µM
  relative viability: 0.263
PC-14; first compound 8 µM
  relative viability: 0.381

## COc1nc(C)cnc1NS(=O)(=O)c1cccnc1-c1ccc(-c2nnco2)cc1 [Zibotentan] + NC(=O)Nc1cc(-c2cccc(F)c2)sc1C(=O)N[C@H]1CCCNC1 [AZD7762] (partner 0.2 µM)
HCC-78; first compound 0.08 µM
  relative viability: 0.712
HCC-78; first compound 0.253 µM
  relative viability: 0.475
HCC-78; first compound 0.8 µM
  relative viability: 0.664
HCC-78; first compound 2.53 µM
  relative viability: 0.474
LCLC-97TM1; first compound 0.08 µM
  relative viability: 0.433
LCLC-97TM1; first compound 0.253 µM
  relative viability: 0.165
LCLC-97TM1; first compound 0.8 µM
  relative viability: 0.12
LCLC-97TM1; first compound 2.53 µM
  relative viability: 0.253
H3255; first compound 0.08 µM
  relative viability: 0.901
H3255; first compound 0.253 µM
  relative viability: 0.87
H3255; first compound 0.8 µM
  relative viability: 0.825
H3255; first compound 2.53 µM
  relative viability: 0.799
NCI-H1666; first compound 0.08 µM
  relative viability: 0.866
NCI-H1666; first compound 0.253 µM
  relative viability: 0.795
NCI-H1666; first compound 0.8 µM
  relative viability: 0.898
NCI-H1666; first compound 2.53 µM
  relative viability: 0.791
NCI-H647; first compound 0.08 µM
  relative viability: 0.353
NCI-H647; first compound 0.253 µM
  relative viability: 0.302
NCI-H647; first compound 0.8 µM
  relative viability: 0.384
NCI-H647; first compound 2.53 µM
  relative viability: 0.676
RERF-LC-KJ; first compound 0.08 µM
  relative viability: 1.16
RERF-LC-KJ; first compound 0.253 µM
  relative viability: 0.938
RERF-LC-KJ; first compound 0.8 µM
  relative viability: 0.841
RERF-LC-KJ; first compound 2.53 µM
  relative viability: 0.909
NCI-H2126; first compound 0.08 µM
  relative viability: 0.986
NCI-H2126; first compound 0.253 µM
  relative viability: 0.987
NCI-H2126; first compound 0.8 µM
  relative viability: 0.915
NCI-H2126; first compound 2.53 µM
  relative viability: 1.04
NCI-H1915; first compound 0.08 µM
  relative viability: 0.836
NCI-H1915; first compound 0.253 µM
  relative viability: 0.649
NCI-H1915; first compound 0.8 µM
  relative viability: 0.597
NCI-H1915; first compound 2.53 µM
  relative viability: 0.683
NCI-H23; first compound 0.08 µM
  relative viability: 0.224
NCI-H23; first compound 0.253 µM
  relative viability: 0.238
NCI-H23; first compound 0.8 µM
  relative viability: 0.196
NCI-H23; first compound 2.53 µM
  relative viability: 0.26
EPLC-272H; first compound 0.08 µM
  relative viability: 0.217
EPLC-272H; first compound 0.253 µM
  relative viability: 0.261
EPLC-272H; first compound 0.8 µM
  relative viability: 0.168
EPLC-272H; first compound 2.53 µM
  relative viability: 0.259
NCI-H650; first compound 0.08 µM
  relative viability: 1.09
NCI-H650; first compound 0.253 µM
  relative viability: 0.892
NCI-H650; first compound 0.8 µM
  relative viability: 0.943
NCI-H650; first compound 2.53 µM
  relative viability: 1.11
NCI-H2347; first compound 0.08 µM
  relative viability: 0.733
NCI-H2347; first compound 0.253 µM
  relative viability: 0.723
NCI-H2347; first compound 0.8 µM
  relative viability: 0.742
NCI-H2347; first compound 2.53 µM
  relative viability: 0.945
LC-2-ad; first compound 0.08 µM
  relative viability: 0.785
LC-2-ad; first compound 0.253 µM
  relative viability: 0.781
LC-2-ad; first compound 0.8 µM
  relative viability: 0.791
LC-2-ad; first compound 2.53 µM
  relative viability: 0.905
NCI-H2087; first compound 0.08 µM
  relative viability: 1.28
NCI-H2087; first compound 0.253 µM
  relative viability: 1.22
NCI-H2087; first compound 0.8 µM
  relative viability: 1.29
NCI-H2087; first compound 2.53 µM
  relative viability: 1.29
NCI-H2405; first compound 0.08 µM
  relative viability: 0.766
NCI-H2405; first compound 0.253 µM
  relative viability: 0.701
NCI-H2405; first compound 0.8 µM
  relative viability: 0.654
NCI-H2405; first compound 2.53 µM
  relative viability: 0.846
HCC-827; first compound 0.08 µM
  relative viability: 0.215
HCC-827; first compound 0.253 µM
  relative viability: 0.183
HCC-827; first compound 0.8 µM
  relative viability: 0.183
HCC-827; first compound 2.53 µM
  relative viability: 0.223
ChaGo-K-1; first compound 0.08 µM
  relative viability: 0.912
ChaGo-K-1; first compound 0.253 µM
  relative viability: 0.842
ChaGo-K-1; first compound 0.8 µM
  relative viability: 0.756
ChaGo-K-1; first compound 2.53 µM
  relative viability: 0.927
201T; first compound 0.08 µM
  relative viability: 0.644
201T; first compound 0.253 µM
  relative viability: 0.604
201T; first compound 0.8 µM
  relative viability: 0.624
201T; first compound 2.53 µM
  relative viability: 0.569
PC-14; first compound 0.08 µM
  relative viability: 0.445
PC-14; first compound 0.253 µM
  relative viability: 0.264
PC-14; first compound 0.8 µM
  relative viability: 0.324
PC-14; first compound 2.53 µM
  relative viability: 0.369
